Experimental data from the METLIN SMRT retention time set (Domingo-Almenara et al. 2019).

assay: gradient 5% acetonitrile 3 min, to 50% in 2 min, to 85% in 15 min, held 3 min, 100 µL/min; details: column: Zorbax Extend-C18 2.1 x 50 mm; eluents: water / acetonitrile, 0.1% formic acid
Summary of the method: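 In both positive and negative ionization mode, a quadrupole time-of-flight mass spectrometer coupled to HPLC analyzed pure standards run in mixtures of ~100 molecules. The Zorbax Extend-C18 column (2.1 × 50 mm, 1.8 μm) was operated at 100 μL/min with water and acetonitrile, each containing 0.1% formic acid. The dead volume was 40 μL and the dwell volume 900 μL. Retention time came from adduct peaks that were computationally picked and individually inspected by hand.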

First: Cc1ccccc1N1CCN(S(=O)(=O)c2cc(-c3nnc(C4CC4)o3)co2)CC1
Second: Cc1noc(C)c1S(=O)(=O)N1CCC(c2nnc(-c3ccco3)o2)CC1
The RP-LC retention time of the first is higher: 1090 s for the first, 756 s for the second.

First: Cc1ccc2c(NCc3ccc(Cl)cc3)c(-c3nc(C)no3)cnc2n1
Second: COc1cc(Cl)ccc1-c1nc(-c2ccc3oc(C)nc3c2)no1
The RP-LC retention time of the first is lower: 727 s for the first, 1140 s for the second.

First: CN1CCN(c2c3c(nc4nc(-c5ccccc5)nn24)CCCC3)CC1
Second: COc1ccccc1N1CCN(c2cc(SCC(=O)NCCC3=CCCCC3)ncn2)CC1
The RP-LC retention time of the first is lower: 582 s for the first, 1080 s for the second.

Going from Cc1nc(-c2csc(S(=O)(=O)N3CCCC(C(=O)Nc4ccc(Cl)cc4C)C3)c2)no1 (stereo unspecified) to COc1ccc(NC(=O)C2CCCN2S(=O)(=O)c2cc3c(cc2C)NC(=O)C(C)O3)cc1Cl (stereo unspecified), the RP-LC retention time falls from 1040 s to 824 s.

First: CCNC(=O)C1CCCN(c2nc3ncn(CC(=O)NCc4ccccc4)c(=O)c3s2)C1 (stereo unspecified)
Second: Cc1cc(=O)n(CC(=O)NCc2ccccc2)c(N)n1
The RP-LC retention time of the first is higher: 638 s for the first, 570 s for the second.

Going from CCn1c(=O)c(N2CCN(C(=O)Nc3cccc(Br)c3)CC2)nc2cccnc21 to COc1ccc(NC(=O)N2CCN(c3cc(-c4ccc(OC)c(OC)c4)ncn3)CC2)cc1, the RP-LC retention time falls from 1030 s to 620 s.

Compared with CC(=O)Nc1cccc(N2CC(C(=O)Nc3ccc(C(F)(F)F)cc3)CC2=O)c1 (stereo unspecified), Cc1c(Cl)cccc1NC(=O)C(=O)NCC(O)c1ccc(C(F)(F)F)cc1 (stereo unspecified) is higher in RP-LC retention time: 770 s for the first, 936 s for the second.

Compared with COCc1noc(CC2CCOC3(CCN(Cc4ccc5c(c4)CCO5)CC3)C2)n1 (stereo unspecified), COC1C(=O)N(CC2CC2)C12CCN(Cc1ccc(F)c(F)c1)CC2 (stereo unspecified) is lower in RP-LC retention time: 646 s for the first, 623 s for the second.

Going from O=C(Cn1cccc1-c1nc(-c2ccc3c(c2)OCO3)no1)NCCC1=CCCCC1 to O=C(Cn1cnc2nc(-c3cccnc3)ncc2c1=O)Nc1ccc2c(c1)OCO2, the RP-LC retention time falls from 1150 s to 826 s.

Compared with CCN(CC)C(=O)c1cc(C)nc2c1c(=O)n(Cc1ccccc1)c(=O)n2C, CCCCN(Cc1ccco1)C(=O)Cn1nc(Cc2ccncc2)c2ccccc2c1=O is lower in RP-LC retention time: 884 s for the first, 679 s for the second.

Compared with COc1ccccc1-c1noc(Cn2c(=O)n(Cc3ccccc3Cl)c(=O)c3sccc32)n1, COc1ccc(C2Cn3cnc(-c4nc(-c5ccc(OC)cc5OC)no4)c3CO2)cc1 (stereo unspecified) is lower in RP-LC retention time: 1130 s for the first, 912 s for the second.

First: Cc1ccc(NC(=O)CN2C(=O)NC3(CCCCC3)C2=O)c(C)c1
Second: Cc1ccc(CNC(=O)C2(C)CCCCC(=O)N2)cc1 (stereo unspecified)
The RP-LC retention time of the first is higher: 774 s for the first, 685 s for the second.

Compared with CC1CCCC(C)N1C(=O)CSc1nnc(-c2ccc3c(c2)OCCCO3)n1C (stereo unspecified), Cc1ccc(NC(=O)Cn2nc3c(N4CC(C)CC(C)C4)nccn3c2=O)cc1 (stereo unspecified) is higher in RP-LC retention time: 780 s for the first, 884 s for the second.

Compared with Cc1cccc(NC(=O)N2CCC(c3nc(C(=O)N(C)C)c(C)o3)CC2)c1C, CNC(=O)c1oc2ccccc2c1NC(=O)C1CCC1 is higher in RP-LC retention time: 697 s for the first, 803 s for the second.

Going from Cc1nn2c(CNS(=O)(=O)c3cc(F)cc(F)c3)c(-c3ccccc3)nc2s1 to CCc1noc(NC(C)=O)c1-c1ccc(OC)c(S(=O)(=O)Nc2ccccc2F)c1, the RP-LC retention time falls from 905 s to 763 s.

Compared with CCN1C(=O)C2(CCN(S(=O)(=O)c3ccc(OC)c(Cl)c3)CC2)c2ccccc21, COc1ccc(Cl)cc1NC(=O)N1CCC2(CC1)N=C(c1ccccc1)C(=O)N2 is lower in RP-LC retention time: 1080 s for the first, 909 s for the second.

First: O=C(Nc1cccc(Br)c1)c1cnc(-c2ccccc2)nc1-c1ccncc1
Second: O=C(O)c1ccc(Nc2c(-c3cccc(O)c3)nc3cnccn23)cc1
The RP-LC retention time of the first is higher: 990 s for the first, 620 s for the second.

Going from CC(=O)N1CCc2cc(N3CC(C(=O)Nc4cc(C)ccc4F)CC3=O)ccc21 (stereo unspecified) to O=C(CSc1cc(N2CCN(c3ccccc3F)CC2)ncn1)Nc1ccc(Cl)cc1F, the RP-LC retention time rises from 743 s to 1310 s.

Going from Cc1cc(C(=O)Nc2nc3c(s2)CN(C(=O)c2snnc2C)CC3)no1 to Cc1sc(NC(=O)c2ccc(F)cc2)nc1-c1ccc2c(c1)NC(=O)CO2, the RP-LC retention time rises from 660 s to 872 s.

Compared with COc1cccc(NC(=O)N(Cc2nnc3n2CCCCC3)c2cccc(OC)c2)c1, COc1ccc(NC(=O)C2CCCN(c3ncnc4c3nc3n4CCCCC3)C2)cc1 (stereo unspecified) is higher in RP-LC retention time: 718 s for the first, 753 s for the second.

First: CCn1ncc(NC(=O)COc2ccccc2C)c(N2CCOCC2)c1=O
Second: CCOc1ccc(-n2c(N3CCSCC3)nc3cc(C(=O)OC)ccc3c2=O)cc1
The RP-LC retention time of the first is higher: 889 s for the first, 800 s for the second.

First: O=C(c1cc2ccccc2[nH]1)N1CCN(c2ccc(=O)n(-c3ccc(Cl)cc3)n2)CC1
Second: CCOc1ccccc1C(=O)NC1CCN(c2cc(-c3ccc(Cl)cc3)[nH]n2)C1 (stereo unspecified)
The RP-LC retention time of the first is higher: 918 s for the first, 879 s for the second.

Compared with Cc1ccccc1-c1ccc(N2CCC(C(=O)Nc3cccnc3)CC2)nn1, Cc1ccccc1S(=O)(=O)N1CCC(c2noc(-c3ccccn3)n2)C1 (stereo unspecified) is higher in RP-LC retention time: 546 s for the first, 900 s for the second.

Compared with CCCn1cc(C(=O)NCC(=O)OC)c(S(=O)(=O)N2CCN(c3ccccc3OCC)CC2)n1, CCN1CCN(c2ncnc3c2cnn3-c2ccccc2Cl)CC1 is lower in RP-LC retention time: 969 s for the first, 582 s for the second.

Going from CCOC(=O)C1CCN(Cc2nnn(-c3ccccc3)c2C)CC1 to NC(=O)C1CCN(C(=O)c2snc(-c3ccccn3)c2N)CC1, the RP-LC retention time rises from 614 s to 645 s.

Compared with CCOCc1nc(C2CCCN2C(=O)Nc2ccsc2C(=O)OC)no1 (stereo unspecified), COC[C@@H]1CN(Cc2ccc3[nH]ccc3c2)C[C@H]1c1nc(C)no1 is lower in RP-LC retention time: 626 s for the first, 610 s for the second.

Compared with COc1ccc(C(=O)CN(C(=O)N2CCN(C)CC2)S(=O)(=O)c2ccc(C)cc2)cc1, O=C(NC1CC1)c1ccc(OCC2CCCN(C(=O)c3ccc(F)cc3)C2)cc1 (stereo unspecified) is higher in RP-LC retention time: 588 s for the first, 803 s for the second.

Going from CCCCNC(=O)CCc1[nH]c(C)c(C(=O)OCC)c1C to Cc1[nH]c(C(=O)N2CCCC(C(=O)NCCN3CCOCC3)C2)c(C)c1C(=O)OC(C)C (stereo unspecified), the RP-LC retention time falls from 762 s to 607 s.

Compared with CN(C)CCN(C)CCc1ccc(Cl)c(Cl)c1, CCCn1c(CCNC(=O)c2cc(F)ccc2F)nc2cccnc21 is higher in RP-LC retention time: 639 s for the first, 673 s for the second.

Compared with CCc1nc2nccc(-c3ccc(OC)cc3)n2n1, Cc1ccc(-c2cc3n(n2)CCCN(C(=O)c2cnccn2)C3)cc1 is lower in RP-LC retention time: 784 s for the first, 766 s for the second.

First: O=C(Nc1ccc2nc(N3CCCN(c4ncccn4)CC3)cc(C(=O)O)c2c1)c1ccc(F)cc1
Second: CCN1C(=O)NC(c2cccc(F)c2)C2=C1CN(CCC(=O)N1CCCC1)C2=O (stereo unspecified)
The RP-LC retention time of the first is higher: 616 s for the first, 606 s for the second.

First: Cc1ccc(CNC(=O)CCC2CCN(c3cc(NC4CC4)ncn3)CC2)o1
Second: COCCc1nncn1C1CCN(S(=O)(=O)c2cccc(F)c2)CC1
The RP-LC retention time of the first is lower: 660 s for the first, 696 s for the second.

Going from COc1cc(-c2noc(C3CC(=O)N(c4ccc(C)cc4C)C3)n2)cc(OC)c1OC (stereo unspecified) to Cc1nc(-c2cnccn2)nc2c1CCC(=O)N2CCC1=CCCCC1, the RP-LC retention time falls from 938 s to 876 s.
